Calls of active or inactive are those of the source. The calls are words filed in the database; no cut-off is given here.
What was measured:
[1] = molecular target: T1, Polyamine deacetylase HDAC10 (Homo sapiens, UniProt Q969S8); experiment: Inhibition of HDAC10 (unknown origin) by fluorescence assay
T1 sequence (Q969S8 whole entry): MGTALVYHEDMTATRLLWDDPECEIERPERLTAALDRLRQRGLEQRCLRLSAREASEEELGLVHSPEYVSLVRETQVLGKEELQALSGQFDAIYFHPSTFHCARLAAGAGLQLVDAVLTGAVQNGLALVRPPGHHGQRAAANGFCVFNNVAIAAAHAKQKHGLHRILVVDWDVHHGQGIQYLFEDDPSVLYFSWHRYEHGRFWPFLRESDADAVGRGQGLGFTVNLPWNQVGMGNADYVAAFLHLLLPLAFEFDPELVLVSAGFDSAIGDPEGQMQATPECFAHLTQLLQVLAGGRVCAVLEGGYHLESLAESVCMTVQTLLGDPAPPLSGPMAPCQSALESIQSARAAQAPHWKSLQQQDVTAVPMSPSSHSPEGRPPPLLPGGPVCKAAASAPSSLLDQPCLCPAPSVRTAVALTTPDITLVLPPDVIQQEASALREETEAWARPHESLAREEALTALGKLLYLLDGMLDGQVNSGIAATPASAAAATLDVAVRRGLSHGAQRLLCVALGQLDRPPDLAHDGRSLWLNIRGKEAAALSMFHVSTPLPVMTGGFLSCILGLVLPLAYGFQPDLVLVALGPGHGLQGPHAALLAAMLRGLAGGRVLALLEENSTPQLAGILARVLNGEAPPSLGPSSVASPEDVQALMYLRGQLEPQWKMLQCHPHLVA

Histone deacetylase 7 = molecular target: T2, Histone deacetylase 7 (Homo sapiens, UniProt Q8WUI4); experiment: Inhibition of human recombinant HDAC7 using fluorogenic HDAC substrate class 2A by fluorescence assay
T2 sequence (Q8WUI4 whole entry): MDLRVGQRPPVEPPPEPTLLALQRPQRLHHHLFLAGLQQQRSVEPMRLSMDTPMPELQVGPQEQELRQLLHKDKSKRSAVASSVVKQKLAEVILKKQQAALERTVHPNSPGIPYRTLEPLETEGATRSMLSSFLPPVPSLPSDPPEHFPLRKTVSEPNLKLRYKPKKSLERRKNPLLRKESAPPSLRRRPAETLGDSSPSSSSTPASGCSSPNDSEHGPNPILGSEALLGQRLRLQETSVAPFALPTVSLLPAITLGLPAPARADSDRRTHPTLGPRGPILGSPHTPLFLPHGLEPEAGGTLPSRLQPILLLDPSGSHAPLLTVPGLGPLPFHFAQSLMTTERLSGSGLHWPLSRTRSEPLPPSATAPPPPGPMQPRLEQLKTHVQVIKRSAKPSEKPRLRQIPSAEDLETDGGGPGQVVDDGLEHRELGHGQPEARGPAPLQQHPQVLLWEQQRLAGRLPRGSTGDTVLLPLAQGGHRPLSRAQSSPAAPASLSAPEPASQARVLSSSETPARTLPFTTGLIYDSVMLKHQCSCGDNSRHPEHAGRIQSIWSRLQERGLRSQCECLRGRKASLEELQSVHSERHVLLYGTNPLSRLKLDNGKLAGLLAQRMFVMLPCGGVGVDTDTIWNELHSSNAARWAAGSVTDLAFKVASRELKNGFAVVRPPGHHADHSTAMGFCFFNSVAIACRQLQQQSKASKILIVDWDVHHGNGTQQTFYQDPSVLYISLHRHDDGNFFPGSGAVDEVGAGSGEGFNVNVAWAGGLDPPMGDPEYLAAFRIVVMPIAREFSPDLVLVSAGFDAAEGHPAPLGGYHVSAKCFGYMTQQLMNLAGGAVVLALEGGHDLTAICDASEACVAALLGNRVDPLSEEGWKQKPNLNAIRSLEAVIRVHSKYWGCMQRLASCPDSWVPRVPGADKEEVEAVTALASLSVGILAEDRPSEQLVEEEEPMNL

Histone deacetylase 4 = Histone deacetylase 4 (Homo sapiens, UniProt P56524); experiment: Inhibition of human recombinant HDAC4 using fluorogenic HDAC substrate class 2A by fluorescence assay
Histone deacetylase 2 = Histone deacetylase 2 (Homo sapiens, UniProt Q92769); experiment: Inhibition of HDAC2 (unknown origin) using fluorogenic HDAC substrate-3 by fluorescence assay
Histone deacetylase 8 = molecular target: T3, Histone deacetylase 8 (Homo sapiens, UniProt Q9BY41); experiment: Inhibition of human recombinant HDAC8 using fluorogenic HDAC substrate class 2A by fluorescence assay
T3 sequence (Q9BY41 whole entry): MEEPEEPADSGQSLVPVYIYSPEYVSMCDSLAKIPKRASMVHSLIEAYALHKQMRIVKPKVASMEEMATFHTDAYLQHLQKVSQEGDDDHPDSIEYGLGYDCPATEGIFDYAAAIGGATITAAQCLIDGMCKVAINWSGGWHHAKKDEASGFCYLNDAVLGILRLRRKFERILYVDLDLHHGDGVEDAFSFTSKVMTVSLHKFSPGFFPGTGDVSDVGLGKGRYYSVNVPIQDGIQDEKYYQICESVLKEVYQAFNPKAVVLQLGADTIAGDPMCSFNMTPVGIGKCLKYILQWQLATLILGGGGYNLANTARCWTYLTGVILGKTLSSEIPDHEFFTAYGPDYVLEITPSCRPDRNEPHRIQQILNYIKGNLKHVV

Histone deacetylase 11 = molecular target: T4, Histone deacetylase 11 (Homo sapiens, UniProt Q96DB2); experiment: Inhibition of human recombinant HDAC11 using fluorogenic HDAC substrate class 2A by fluorescence assay
T4 sequence (Q96DB2 whole entry): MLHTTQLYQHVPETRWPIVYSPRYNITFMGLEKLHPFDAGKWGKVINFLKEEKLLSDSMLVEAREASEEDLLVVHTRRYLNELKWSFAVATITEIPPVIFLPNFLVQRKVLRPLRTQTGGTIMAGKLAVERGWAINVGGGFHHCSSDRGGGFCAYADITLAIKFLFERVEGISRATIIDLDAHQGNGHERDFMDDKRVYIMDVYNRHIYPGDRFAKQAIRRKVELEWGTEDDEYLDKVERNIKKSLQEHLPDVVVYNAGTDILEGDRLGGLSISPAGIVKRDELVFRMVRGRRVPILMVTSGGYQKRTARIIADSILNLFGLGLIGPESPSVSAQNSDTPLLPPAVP

Histone deacetylase 5 = Histone deacetylase 5 (Homo sapiens, UniProt Q9UQL6); experiment: Inhibition of human recombinant HDAC5 using fluorogenic HDAC substrate class 2A by fluorescence assay
[2] = molecular target: T5, Protein deacetylase HDAC6 (Homo sapiens, UniProt Q9UBN7); experiment: Inhibition of human recombinant HDAC6 using fluorogenic HDAC substrate-3 by fluorescence assay
T5 sequence (Q9UBN7 whole entry): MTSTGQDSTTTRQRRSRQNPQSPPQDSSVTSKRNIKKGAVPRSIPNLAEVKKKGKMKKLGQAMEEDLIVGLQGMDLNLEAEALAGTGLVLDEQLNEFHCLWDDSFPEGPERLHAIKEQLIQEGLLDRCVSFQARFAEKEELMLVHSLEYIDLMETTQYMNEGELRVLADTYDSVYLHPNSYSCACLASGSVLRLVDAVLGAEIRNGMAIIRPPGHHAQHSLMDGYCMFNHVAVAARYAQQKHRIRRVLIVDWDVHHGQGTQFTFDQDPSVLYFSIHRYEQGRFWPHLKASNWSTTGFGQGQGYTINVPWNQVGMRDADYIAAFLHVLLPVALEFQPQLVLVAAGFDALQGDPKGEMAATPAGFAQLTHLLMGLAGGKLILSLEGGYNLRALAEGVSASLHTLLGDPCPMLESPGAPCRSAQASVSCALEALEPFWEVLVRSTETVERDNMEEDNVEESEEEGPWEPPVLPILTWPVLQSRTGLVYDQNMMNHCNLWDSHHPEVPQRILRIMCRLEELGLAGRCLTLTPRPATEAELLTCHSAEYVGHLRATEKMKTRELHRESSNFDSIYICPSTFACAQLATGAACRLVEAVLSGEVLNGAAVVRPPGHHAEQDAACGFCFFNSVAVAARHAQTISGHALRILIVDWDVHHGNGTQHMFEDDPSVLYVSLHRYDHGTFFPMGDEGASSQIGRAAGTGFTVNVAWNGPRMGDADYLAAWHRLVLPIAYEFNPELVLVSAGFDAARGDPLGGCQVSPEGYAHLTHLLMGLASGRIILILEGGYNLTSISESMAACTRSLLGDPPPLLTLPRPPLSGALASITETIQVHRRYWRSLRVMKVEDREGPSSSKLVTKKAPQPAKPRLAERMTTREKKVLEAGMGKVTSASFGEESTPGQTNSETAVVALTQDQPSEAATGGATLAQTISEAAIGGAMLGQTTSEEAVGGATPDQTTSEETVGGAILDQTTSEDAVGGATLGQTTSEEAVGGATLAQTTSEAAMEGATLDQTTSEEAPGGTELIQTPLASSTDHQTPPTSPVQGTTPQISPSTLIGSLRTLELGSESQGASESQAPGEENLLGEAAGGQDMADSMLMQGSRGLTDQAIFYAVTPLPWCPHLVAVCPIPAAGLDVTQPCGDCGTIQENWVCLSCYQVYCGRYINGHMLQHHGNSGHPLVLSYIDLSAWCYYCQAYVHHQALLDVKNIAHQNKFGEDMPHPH

Histone deacetylase 1 [3] = molecular target: T6, Histone deacetylase 1 (Homo sapiens, UniProt Q13547); experiment: Inhibition of human recombinant HDAC1 using fluorogenic HDAC substrate-3 by fluorescence assay
Histone deacetylase 9 = Histone deacetylase 9 (Homo sapiens, UniProt Q9UKV0); experiment: Inhibition of human recombinant HDAC9 using fluorogenic HDAC substrate class 2A by fluorescence assay
SH-SY5Y = experiment: Cytotoxicity against human SH-SY5Y cells assessed as reduction in cell viability after 3 days by MTS assay; assay type: functional; conditions: for GI50: 72 h
Histone deacetylase 3 = Histone deacetylase 3 (Homo sapiens, UniProt O15379); experiment: Inhibition of human recombinant HDAC3 using fluorogenic HDAC substrate-3 by fluorescence assay
[4] = molecular target: T7, Protein deacetylase HDAC6 (Homo sapiens) (UniProt Q9UBN7); experiment: Inhibition of HDAC6 in human SH-SY5Y cells assessed as increase in alpha-tubulin acetylation at 0.5 uM after 24 hrs by Western blot analysis; assay type: cell-based
T7 sequence (whole entry): T5 sequence (Q9UBN7 whole entry)

Histone deacetylase 1 [5] = molecular target: T6, Histone deacetylase 1; experiment: Inhibition of HDAC1 in human SH-SY5Y cells assessed as increase in histone H3 acetylation up to 20 uM after 24 hrs by Western blot analysis; assay type: cell-based
[6] = molecular target: T7, Protein deacetylase HDAC6 (Homo sapiens); experiment: Inhibition of HDAC6 in human H1975 cells assessed as microtubule polymerization up to 10 uM after 24 hrs by Hoechst staining-based fluorescence microscopic analysis; assay type: cell-based
[7] = molecular target: T7, Protein deacetylase HDAC6 (Homo sapiens); experiment: Inhibition of HDAC6 in human SH-SY5Y cells assessed as increase in alpha-tubulin acetylation after 24 hrs by Western blot analysis; assay type: cell-based
[8] = molecular target: T7, Protein deacetylase HDAC6 (Homo sapiens); experiment: Inhibition of HDAC6 in human H1975 cells assessed as alpha-tubulin acetylation up to 10 uM after 24 hrs by Hoechst staining-based fluorescence microscopic analysis; assay type: cell-based

T6 sequence (Q13547 whole entry): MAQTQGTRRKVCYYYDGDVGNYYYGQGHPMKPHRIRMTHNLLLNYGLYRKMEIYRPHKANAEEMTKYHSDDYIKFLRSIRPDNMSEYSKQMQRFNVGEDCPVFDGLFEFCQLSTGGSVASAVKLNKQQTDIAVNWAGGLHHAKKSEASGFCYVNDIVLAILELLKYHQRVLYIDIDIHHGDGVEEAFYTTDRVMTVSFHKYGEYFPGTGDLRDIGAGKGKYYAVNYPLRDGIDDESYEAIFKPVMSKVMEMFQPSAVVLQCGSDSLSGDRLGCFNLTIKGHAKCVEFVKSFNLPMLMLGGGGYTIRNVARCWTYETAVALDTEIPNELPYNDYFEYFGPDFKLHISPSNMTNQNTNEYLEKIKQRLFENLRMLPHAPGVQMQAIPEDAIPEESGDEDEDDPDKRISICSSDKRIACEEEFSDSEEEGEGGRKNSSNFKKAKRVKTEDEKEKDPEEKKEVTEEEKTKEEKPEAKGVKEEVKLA
Sequence of Histone deacetylase 4 (P56524 whole entry): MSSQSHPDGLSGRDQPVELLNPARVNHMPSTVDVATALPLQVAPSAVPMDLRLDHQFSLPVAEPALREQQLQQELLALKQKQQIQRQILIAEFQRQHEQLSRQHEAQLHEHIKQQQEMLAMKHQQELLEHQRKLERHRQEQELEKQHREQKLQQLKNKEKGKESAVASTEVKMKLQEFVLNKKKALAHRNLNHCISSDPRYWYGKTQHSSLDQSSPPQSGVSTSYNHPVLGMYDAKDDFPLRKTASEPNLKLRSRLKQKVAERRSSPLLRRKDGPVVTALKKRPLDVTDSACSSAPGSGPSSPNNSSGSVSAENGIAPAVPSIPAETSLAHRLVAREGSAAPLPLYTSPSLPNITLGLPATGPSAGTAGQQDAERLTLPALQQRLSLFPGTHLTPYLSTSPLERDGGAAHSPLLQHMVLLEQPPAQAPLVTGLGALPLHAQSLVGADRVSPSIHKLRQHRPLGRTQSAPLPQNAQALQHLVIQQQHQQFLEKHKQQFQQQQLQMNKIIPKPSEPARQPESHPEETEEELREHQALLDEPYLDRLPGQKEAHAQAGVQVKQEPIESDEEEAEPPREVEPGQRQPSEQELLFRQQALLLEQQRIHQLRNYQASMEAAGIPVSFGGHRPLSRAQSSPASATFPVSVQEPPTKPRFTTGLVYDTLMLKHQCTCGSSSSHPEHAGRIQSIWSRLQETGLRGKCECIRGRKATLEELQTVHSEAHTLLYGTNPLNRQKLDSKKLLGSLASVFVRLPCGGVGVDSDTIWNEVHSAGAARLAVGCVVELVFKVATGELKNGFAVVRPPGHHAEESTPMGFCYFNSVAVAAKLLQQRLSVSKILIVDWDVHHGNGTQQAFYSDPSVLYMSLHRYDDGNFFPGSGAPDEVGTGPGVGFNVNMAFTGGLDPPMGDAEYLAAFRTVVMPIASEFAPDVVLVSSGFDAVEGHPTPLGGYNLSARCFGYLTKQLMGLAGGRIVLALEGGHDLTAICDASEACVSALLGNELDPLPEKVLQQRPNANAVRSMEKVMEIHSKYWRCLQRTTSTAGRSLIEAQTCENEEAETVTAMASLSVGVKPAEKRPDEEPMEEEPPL
Sequence of Histone deacetylase 9 (Q9UKV0 whole entry): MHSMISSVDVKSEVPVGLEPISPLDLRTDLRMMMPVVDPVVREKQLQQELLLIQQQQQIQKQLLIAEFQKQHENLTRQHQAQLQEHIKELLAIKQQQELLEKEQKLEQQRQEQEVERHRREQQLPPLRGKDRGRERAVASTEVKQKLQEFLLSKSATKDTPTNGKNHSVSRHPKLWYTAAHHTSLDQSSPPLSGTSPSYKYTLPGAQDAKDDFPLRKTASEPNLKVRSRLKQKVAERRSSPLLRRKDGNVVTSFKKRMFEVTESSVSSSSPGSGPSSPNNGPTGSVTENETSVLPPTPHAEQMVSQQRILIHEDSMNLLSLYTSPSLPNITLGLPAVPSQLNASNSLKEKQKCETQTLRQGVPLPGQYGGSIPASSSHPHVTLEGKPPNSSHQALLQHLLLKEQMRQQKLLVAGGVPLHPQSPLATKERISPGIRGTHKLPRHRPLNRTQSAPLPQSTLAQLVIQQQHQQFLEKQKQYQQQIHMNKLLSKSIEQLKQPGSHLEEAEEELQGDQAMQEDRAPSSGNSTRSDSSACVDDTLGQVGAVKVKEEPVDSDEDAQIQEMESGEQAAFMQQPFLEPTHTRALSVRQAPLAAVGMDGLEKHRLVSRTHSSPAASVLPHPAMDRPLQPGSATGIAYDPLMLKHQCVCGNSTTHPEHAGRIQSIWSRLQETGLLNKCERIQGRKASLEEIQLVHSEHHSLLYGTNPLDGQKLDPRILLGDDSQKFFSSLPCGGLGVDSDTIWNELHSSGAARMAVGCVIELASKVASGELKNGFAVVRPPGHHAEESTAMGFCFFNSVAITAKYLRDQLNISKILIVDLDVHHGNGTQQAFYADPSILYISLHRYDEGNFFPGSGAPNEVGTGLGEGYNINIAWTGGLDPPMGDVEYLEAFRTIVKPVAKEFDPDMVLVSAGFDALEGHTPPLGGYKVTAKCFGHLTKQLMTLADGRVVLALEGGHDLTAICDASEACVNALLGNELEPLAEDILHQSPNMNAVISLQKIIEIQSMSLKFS
Sequence of Histone deacetylase 2 (Q92769 whole entry): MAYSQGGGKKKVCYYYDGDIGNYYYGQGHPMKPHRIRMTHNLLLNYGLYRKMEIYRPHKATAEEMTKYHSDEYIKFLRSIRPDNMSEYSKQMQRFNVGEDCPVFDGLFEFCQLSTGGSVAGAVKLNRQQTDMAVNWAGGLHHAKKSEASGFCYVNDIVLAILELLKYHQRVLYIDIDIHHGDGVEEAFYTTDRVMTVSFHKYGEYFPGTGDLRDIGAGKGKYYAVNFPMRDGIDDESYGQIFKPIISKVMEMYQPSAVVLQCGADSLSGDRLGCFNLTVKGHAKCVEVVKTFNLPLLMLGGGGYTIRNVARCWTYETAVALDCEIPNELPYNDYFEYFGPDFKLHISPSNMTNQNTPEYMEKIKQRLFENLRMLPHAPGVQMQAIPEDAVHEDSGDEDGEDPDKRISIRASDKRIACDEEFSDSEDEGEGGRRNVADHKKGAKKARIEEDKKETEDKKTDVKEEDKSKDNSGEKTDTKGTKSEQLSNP
Sequence of Histone deacetylase 3 (O15379 whole entry): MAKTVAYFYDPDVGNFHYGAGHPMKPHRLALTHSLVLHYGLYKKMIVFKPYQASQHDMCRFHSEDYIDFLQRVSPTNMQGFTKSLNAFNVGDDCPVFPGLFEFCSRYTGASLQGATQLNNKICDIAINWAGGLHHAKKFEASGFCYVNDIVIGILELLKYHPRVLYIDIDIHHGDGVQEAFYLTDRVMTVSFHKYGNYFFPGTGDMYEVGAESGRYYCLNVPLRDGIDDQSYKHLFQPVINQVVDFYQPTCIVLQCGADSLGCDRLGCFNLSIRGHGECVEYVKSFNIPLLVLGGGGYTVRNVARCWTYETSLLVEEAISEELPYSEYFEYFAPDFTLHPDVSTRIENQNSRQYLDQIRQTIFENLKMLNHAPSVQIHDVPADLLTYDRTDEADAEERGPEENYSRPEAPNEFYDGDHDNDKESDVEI
Sequence of Histone deacetylase 5 (Q9UQL6 whole entry): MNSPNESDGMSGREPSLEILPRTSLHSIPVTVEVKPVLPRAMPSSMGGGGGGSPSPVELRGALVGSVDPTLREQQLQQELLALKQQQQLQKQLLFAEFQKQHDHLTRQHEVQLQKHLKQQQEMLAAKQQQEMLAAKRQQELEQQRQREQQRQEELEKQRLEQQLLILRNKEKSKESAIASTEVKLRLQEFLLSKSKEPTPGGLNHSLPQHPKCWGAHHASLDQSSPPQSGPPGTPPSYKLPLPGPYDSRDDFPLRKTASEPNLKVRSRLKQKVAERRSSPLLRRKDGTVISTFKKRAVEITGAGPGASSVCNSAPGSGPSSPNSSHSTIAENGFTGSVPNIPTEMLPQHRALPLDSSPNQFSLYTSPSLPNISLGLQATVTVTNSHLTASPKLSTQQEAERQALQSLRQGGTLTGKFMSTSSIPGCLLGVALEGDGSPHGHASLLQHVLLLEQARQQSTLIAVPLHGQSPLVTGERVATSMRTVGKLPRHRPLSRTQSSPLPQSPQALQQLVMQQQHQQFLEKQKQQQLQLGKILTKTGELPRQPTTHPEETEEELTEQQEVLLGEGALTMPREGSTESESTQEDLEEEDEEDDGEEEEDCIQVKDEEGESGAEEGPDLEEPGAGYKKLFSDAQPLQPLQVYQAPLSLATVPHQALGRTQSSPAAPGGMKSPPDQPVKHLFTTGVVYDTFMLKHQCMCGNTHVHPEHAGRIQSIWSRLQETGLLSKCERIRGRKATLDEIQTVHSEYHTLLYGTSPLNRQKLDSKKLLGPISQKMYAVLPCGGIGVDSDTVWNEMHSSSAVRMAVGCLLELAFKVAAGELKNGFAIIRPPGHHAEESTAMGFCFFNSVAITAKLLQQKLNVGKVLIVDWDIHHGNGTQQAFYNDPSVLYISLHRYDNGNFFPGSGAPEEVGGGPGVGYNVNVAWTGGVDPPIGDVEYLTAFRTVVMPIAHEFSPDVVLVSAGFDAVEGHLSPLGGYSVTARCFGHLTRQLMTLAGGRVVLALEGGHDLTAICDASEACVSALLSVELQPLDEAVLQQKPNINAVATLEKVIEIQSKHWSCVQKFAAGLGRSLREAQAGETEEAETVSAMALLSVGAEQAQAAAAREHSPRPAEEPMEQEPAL

Row | IC50 [1] [µM] | IC50 (Histone deacetylase 7) [µM] | IC50 (Histone deacetylase 4) [µM] | IC50 (Histone deacetylase 2) [µM] | IC50 (Histone deacetylase 8) [µM] | IC50 (Histone deacetylase 11) [µM] | IC50 (Histone deacetylase 5) [µM] | IC50 [2] [µM] | IC50 (Histone deacetylase 1 [3]) [µM] | IC50 (Histone deacetylase 9) [µM] | IC50 (Histone deacetylase 3) [µM] | inhibition [4] | inhibition (Histone deacetylase 1 [5]) | inhibition [6] | inhibition [7] | inhibition [8] | SMILES | Activity (SH-SY5Y) | GI50 (SH-SY5Y) [µM]
1 | 1.47 | > 100 | 16.2 | 13.6 | > 100 | > 100 | 8.59 | 0.536 | 3.07 | > 100 | 1.97 | – | – | – | – | – | O=C(/C=C/c1ccc2c(c1)C(=O)c1ccccc1C2=O)NO | Dose-dependent effect | 22.3
2 | 5 | – | 5.61 | 4.62 | 0.599 | 80 | 1.36 | 0.056 | 0.91 | 7.78 | 3.95 | Active | inactive | Active | Dose-dependent effect | Active | O=C(NO)c1ccc2c(c1)C(=O)c1ccccc1C2=O | Dose-dependent effect | 15.8

Source: ChEMBL document CHEMBL4422624, “A novel class of anthraquinone-based HDAC6 inhibitors” (Eur J Med Chem, 2019)
